# Results as given in patent EP0613481B1, “TRIAMINO PLATINUM COMPLEXES AND A METHOD FOR THE SYNTHESIS THEREOF” (priority 1991, dated 1993).
# Key:
# [1] = tested on: L 1210 murine leukemia cell line; experiment: 24 hours-thymidine uptake cytotoxicity, continuous exposition to the drugs; format: cell-based; conditions: for IC50: L1210, Mean ±SD, read-out: IC50 (Concentration producing 50% of inhibition)
# [2] = tested on: P388 leukemic cells; experiment: In vivo compared antitumor activity assay in mice infected with P388 leukemic cells; conditions: single administration
# [3] = tested on: L 1210/cis-DDP cell line; conditions: for IC50: read-out: IC50 (Concentration producing 50% of inhibition), L1210/cis-DDP, Mean ±SD
# [4] = tested on: P388 murine leukemic cells; experiment: In vitro cytotoxic activity; format: cell-based; conditions: at least comparable with cis-DDP
# [5] = tested on: Jurkat human cells; experiment: In vitro cytotoxic activity; format: cell-based; conditions: at least comparable with cis-DDP
# [6] = mouse, in vivo, ip
# [7] = tested on: K562 human erhytroleukemic cells; experiment: In vitro cytotoxic activity; format: cell-based; conditions: at least comparable with cis-DDP
# [8] = Acute intraperitoneal toxicity and renal toxicity in mice; conditions: acute intraperitoneal administration, dissolved into 0.9% aqueous NaCl
molecule,measurement,setting,value
"N.N.[Cl][Pt][Cl] [cis-DDP, cis-platinum, reference compound]",IC50,[1],840 ± 90 nM
same,ILS (highest increase in life span),[2]; 8 mg/kg,75%
same,percent body weight variation,"[2]; decrease, 8 mg/kg (maximum tolerated dose)",10.6%
same,IC50,[3],9.6 ± 2.8 µM
cis-diamino-chloro-4-[diethylammoniumethoxycarbonylphenyl]amino-platinum (II)^+ bis-chloride monohydrate [cis-DPR],cytotoxic activity,[4],significant cytotoxyc activity
same,cytotoxic activity,[5],significant cytotoxyc activity
same,IC50,[1],510 ± 80 nM
same,activity relative to cis-DDP (times more active),[1]; parental L 1210 cell line,about 1.6 times
same,ILS (highest increase in life span),[2]; 21 mg/kg,75%
same,percent body weight variation,"[2]; increase, 21 mg/kg",4.5%
same,"kidney damages (plasma BUN increase, examination of renal tubules)",[6],no evaluable kidney damages
same,cytotoxic activity,[7],significant cytotoxyc activity
same,LD50,[8],39.3 mg/kg
same,"activity relative to cis-DDP (times greater, from IC50s)",[3]; L 1210/cis-DDP cell line,about 10 times
same,IC50,[3],0.97 ± 0.17 µM
